Experimental data from publication PMC3358308 (2012).

Key:
[1] = test system: LD (DNA, duplex) GCGCAATTGCGC; experiment: UV-Vis absorption, fluorescence; details: K+ 50 mM (KCl); 10 mM Tris-HCl pH 7.0, 1 mM EDTA; 5 µM compound, 10 µM strand; weak new band at 682 nm
[2] = test system: KRAS (DNA, G4) AGGGCGGTGTGGGAAGAGGGAAGAGGGGGAGG; experiment: UV-Vis absorption titration, Job plot, fluorescence; details: K+ 50 mM (KCl); 10 mM Tris-HCl pH 7.0, 1 mM EDTA, 25 °C; 5 µM compound; Scatchard two-site, constants not given
[3] = test system: M3Q (DNA, G4) GAGGGAGGGAGGGAGAGGGA; experiment: as above; details: K+ 50 mM (KCl); 10 mM Tris-HCl pH 7.0, 1 mM EDTA, 25 °C; 5 µM compound; Scatchard two-site, constants not given
[4] = test system: Oxy28 (DNA, G4) GGGGTTTTGGGGTTTTGGGGTTTTGGGG; experiment: as above; details: K+ 50 mM (KCl); 10 mM Tris-HCl pH 7.0, 1 mM EDTA, 25 °C; 5 µM compound; Scatchard two-site, constants not given
[5] = test system: Hum24 (DNA, G4) TTAGGGTTAGGGTTAGGGTTAGGG; experiment: as above; details: K+ 50 mM (KCl); 10 mM Tris-HCl pH 7.0, 1 mM EDTA, 25 °C; 5 µM compound; Scatchard two-site, constants not given

binding [1]: weak
binding [2]: yes
binding [3]: yes
binding [4]: yes
binding [5]: yes
SMILES: C[N+]1(CCOc2ccc(-c3c4nc(c(-c5ccc(OCC[N+]6(C)CCCCC6)cc5)c5ccc([nH]5)c(-c5ccc(OCC[N+]6(C)CCCCC6)cc5)c5nc(c(-c6ccc(OCC[N+]7(C)CCCCC7)cc6)c6ccc3[nH]6)C=C5)C=C4)cc2)CCCCC1
